Assay results from patent publication US7794960B2, “Predictive biomarkers in cancer therapy” (GlaxoSmithKline LLC, priority 2004, dated 2010).

Tests used:
ErbB2 = assay: Quantitative IHC of sequential tumor biopsies (Day 0 vs Day 21): ErbB2; conditions: 900 mg/day; for ErbB2 % change: Day 21 vs Day 0
Description: (§1) Patients were monitored by physical examination, clinical chemistry and hematology blood tests, and formally re-staged after 8 weeks of therapy. […] Response was classified as Complete Response (CR), Partial Response (PR), Stable Disease (SD) or Progressive Disease (PD). Patients with CR, PR or SD were considered to have a positive clinical response. Patients with Progressive Disease (PD) were considered to have a negative clinical response.
(§2) Biopsies were fixed in 10% neutral buffered formalin (NBF) and paraffin-embedded sections prepared. Hematoxylin and eosin (H&E) staining was used to confirm for the presence of tumor.
(§3) The VMSI “I-View” detection kit was used for all three of the VMSI pre-diluted primary antibodies. Erk1/2 (1:1200), and TGFalpha (1:20) were immunostained using the “BenchMark” with I-VIEW detection chemistry. Phospho-Erk1/2 (1:100) and p-Akt (1:75) were immunostained using a labeled streptavidin peroxidase technique. […] Slides were placed onto the Autostainer (Dako, Carpinteria, Calif.) and used the labeled streptavidin-biotin peroxidase method (LSAB2 kit, Dako) as the detection chemistry. After staining, ErbB1, ErbB2, Erk1/2, p-Akt, p-Erk1/2, p-ErbB1, p-ErbB2, cyclin D1, IGF-IR, and TGFalpha were counterstained manually with 4% ethyl green (Sigma-Aldrich). […] Investigators preparing and analyzing tissue sections were blinded to both patient tumor type and response to therapy.
(§4) Expression of ErbB1, ErbB2, p-ErbB1, p-ErbB2, Erk1/2, p-Erk1/2, Akt, p-Akt, TGFalpha, IGF-IR and cyclin D1 was assessed by IHC with automated image analysis using established assays; OD values were assigned to each specimen.
(§5) For purposes of this Example, “inhibition” of a biomarker refers to a decrease in the level of the biomarker, assessed by comparing the level detected in a Day 0 biopsy from a patient to the level detected in a Day 21 biopsy from the same patient.

EGFR autophosphorylation = conditions: tumor cell lines that overexpress these receptors; cited from earlier work
tumor cells = assay: TUNEL assay of sequential tumor biopsies (Day 0 vs Day 21), tumor cell apoptosis; conditions: for TUNEL % change: Day 21 vs Day 0; for TUNEL % change / TUNEL score (percent tumor cells staining positive), Day 21: 900 mg/day
Description: A commonly used method is TUNEL (Terminal deoxynucleotidyl Transferase Biotin-dUTP Nick End Labeling). One of the characteristics of apoptosis is the degradation of DNA after the activation of Ca/Mg dependent endonucleases. This DNA cleavage leads to strand breaks within the DNA. The TUNEL method identifies apoptotic cells in situ by using terminal deoxynucleotidyl transferase (TdT) to transfer biotin-dUTP to the free 3′-OH of cleaved DNA. The biotin-labeled cleavage sites are then visualized by reaction with fluorescein conjugated avidin (avidin-FITC).
as §1
TUNEL assay (Roche Diagnostics, Indianapolis, Ind.) was performed according to the manufacturer's instructions. Investigators preparing and analyzing tissue sections were blinded to both patient tumor type and response to therapy.
TUNEL scores represent the percent tumor cells staining positive.
For purposes of this Example, an “increase” in TUNEL score refers to an increased TUNEL score in the Day 21 biopsy, compared to the TUNEL score of the Day 0 biopsy from the same patient.
TUNEL staining is a quantitative measurement of DNA fragmentation characteristic of cellular apoptosis.

p-ErbB1 = assay: Quantitative IHC of sequential tumor biopsies (Day 0 vs Day 21): p-ErbB1; format: in vivo, human; conditions: for pErbB1 % change: Day 21 vs Day 0
p-Akt = assay: Quantitative IHC of sequential tumor biopsies (Day 0 vs Day 21): p-Akt; conditions: for pAkt % change: Day 21 vs Day 0; for p-Akt inhibition (Day 21 vs Day 0): PR
Description: as §1, §2, §3, §4, §5

[1] = test system: ErbB2 autophosphorylation; conditions: tumor cell lines that overexpress these receptors; cited from earlier work
p-ErbB2 = assay: Quantitative IHC of sequential tumor biopsies (Day 0 vs Day 21): p-ErbB2; conditions: for pErbB2 % change: Day 21 vs Day 0
Description: as §1, §2, §3, §4, §5

p-Erk1/2 = assay: Quantitative IHC of sequential tumor biopsies (Day 0 vs Day 21): p-Erk1/2
Description: as §1, §2, §3, §4, §5

TGFalpha = assay: Quantitative IHC of sequential tumor biopsies (Day 0 vs Day 21): TGFalpha; conditions: 900 mg/day; for TGFa % change: Day 21 vs Day 0
Description: as §1, §2, §3, §4, §5

[2] = test system: metastatic cancers overexpressing ErbB2 and/or expressing ErbB1; assay: Clinical response (RECIST) in open-label randomized dose-cohort trial; format: in vivo, human; conditions: for Partial Response (PR), number of patients / Stable Disease (SD), number of patients: all subjects
Description: Clinical response was assessed after 8 weeks of therapy.
The Institutional Review Boards at the Sarah Cannon Cancer Center, University of North Carolina-Chapel Hill/Lineberger Comprehensive Cancer Center, Duke University Medical Center, and Case Western Reserve Medical Center approved this study.
Patients with a positive response to treatment (CR, PR or SD) continued on therapy with re-staging every 8 weeks thereafter. Patients were withdrawn from study upon evidence of disease progression or intolerable side effects.

ErbB1 = assay: Quantitative IHC of sequential tumor biopsies (Day 0 vs Day 21): ErbB1; conditions: 900 mg/day; for ErbB1 % change: Day 21 vs Day 0
Description: as §1, §2, §3, §4, §5

cyclin D1 = assay: Quantitative IHC of sequential tumor biopsies (Day 0 vs Day 21): cyclin D1; conditions: for Cyclin D % change: Day 21 vs Day 0
Description: as §1, §2, §3, §4, §5

[3] = breast cancer patient, Progressive Disease
[4] = refractory Inflammatory Breast Cancer patient, Partial Response
[5] = patient with breast cancer, PD after 8 weeks (Table 5)
[6] = breast cancer patient, 900 mg/day, Progressive Disease
[7] = refractory Inflammatory Breast Cancer patient, 900 mg/day, Partial Response
[8] = additional patient with non-inflammatory metastatic breast cancer, PR, 1200 mg/d, 21 days
[9] = patient with non-inflammatory metastatic breast cancer, PR, 900 mg/day
[10] = second patient with IBC, PR (Table 4)
[11] = first patient with IBC, PR, 650 mg/d, 21 days
[12] = Breast, 30 enrolled, 500-1,600 mg orally once daily
[13] = Carcinoma of Unknown Primary, 5 enrolled

CS(=O)(=O)CCNCc1ccc(-c2ccc3ncnc(Nc4ccc(OCc5cccc(F)c5)c(Cl)c4)c3c2)o1 [lapatinib]
ErbB2 % change (ErbB2; [3]): −27%
ErbB2 % change (ErbB2; [4]): −7%
ErbB2 (IHC OD value), Day 21 (ErbB2; [3]): 32
ErbB2 (IHC OD value), Day 21 (ErbB2; [4]): 65
EGFR autophosphorylation (EGFR autophosphorylation): inhibits
TUNEL % change (tumor cells; [3]): 0%
TUNEL % change (tumor cells; [4]): +2400%
Percentage of tumor cells stained positive by TUNEL, Day 21 vs Day 0 (tumor cells; all four patients achieving Partial Response): markedly increased
TUNEL score (percent tumor cells staining positive), Day 21 (tumor cells; [3]): 0
TUNEL score, Day 21 vs Day 0 (tumor cells; patient with ErbB1-overexpressing head and neck carcinoma, tumor regression after 8 weeks not qualifying as PR): increased
TUNEL score, Day 21 vs Day 0 (tumor cells; [5]): did not show an increase
TUNEL score, Day 21 vs Day 0 (tumor cells; patients with PD at 8 weeks): did not increase
TUNEL score (percent tumor cells staining positive), Day 21 (tumor cells; [4]): 72
pErbB1 % change (p-ErbB1; [6]): −81%
pErbB1 % change (p-ErbB1; [7]): −80%
p-ErbB1 inhibition (Day 21 vs Day 0) (p-ErbB1; [8]): not associated with any appreciable inhibition
pErbB1 (IHC OD value), Day 21 (p-ErbB1; [6]): 3
p-ErbB1 inhibition (Day 21 vs Day 0) (p-ErbB1; [5]): 81%
p-ErbB1 inhibition (Day 21 vs Day 0) (p-ErbB1; [9]): 31%
pErbB1 (IHC OD value), Day 21 (p-ErbB1; [7]): 1
p-ErbB1 inhibition (Day 21 vs Day 0) (p-ErbB1; [10]): 80%
pAkt % change (p-Akt; [6]): −8%
pAkt % change (p-Akt; [7]): −0%
p-Akt inhibition (Day 21 vs Day 0) (p-Akt; additional patient with non-inflammatory metastatic breast cancer, 1200 mg/d, 21 days): 34%
pAkt (IHC OD value), Day 21 (p-Akt; [6]): 33
p-Akt inhibition (Day 21 vs Day 0) (p-Akt; first patient with IBC, 650 mg/d, 21 days): 90%
p-Akt change (Day 21 vs Day 0) (p-Akt; [5]): essential unchanged
p-Akt inhibition (Day 21 vs Day 0) (p-Akt; patient with non-inflammatory metastatic breast cancer, 900 mg/day): 44%
pAkt (IHC OD value), Day 21 (p-Akt; [7]): 20
p-Akt change (Day 21 vs Day 0) (p-Akt; [10]): essentially unchanged
ErbB2 autophosphorylation [1]: inhibits
pErbB2 % change (p-ErbB2; [6]): 0%
pErbB2 % change (p-ErbB2; [7]): −83%
p-ErbB2 inhibition (Day 21 vs Day 0) (p-ErbB2; [8]): not associated with any appreciable inhibition
pErbB2 (IHC OD value), Day 21 (p-ErbB2; [6]): 3
p-ErbB2 inhibition (Day 21 vs Day 0) (p-ErbB2; [11]): 72%
p-ErbB2 change (Day 21 vs Day 0) (p-ErbB2; [9]): remained unchanged
pErbB2 (IHC OD value), Day 21 (p-ErbB2; [7]): 5
p-ErbB2 inhibition (Day 21 vs Day 0) (p-ErbB2; [10]): 83%
p-Erk1/2 inhibition (Day 21 vs Day 0) (p-Erk1/2; [8]): complete inhibition
p-Erk1/2 inhibition (Day 21 vs Day 0) (p-Erk1/2; [5]): 87%
p-Erk1/2 inhibition (Day 21 vs Day 0) (p-Erk1/2; [9]): completely inhibited
p-Erk1/2 inhibition (Day 21 vs Day 0) (p-Erk1/2; [10]): 68%
TGFa % change (TGFalpha; [3]): −53%
TGFa % change (TGFalpha; [4]): −61%
TGFa (IHC OD value), Day 21 (TGFalpha; [3]): 23
TGFa (IHC OD value), Day 21 (TGFalpha; [4]): 21
Partial responses (PR), number of patients ([2]; 33 patients with sequential tumor biopsies, breast cancer): 4
Disease stabilization (SD), number of patients ([2]; 33 patients with sequential tumor biopsies, various malignancies): 11
Partial Response (PR), number of patients [2, 12]: 4
Stable Disease (SD), number of patients [2, 12]: 10
Partial Response (PR), number of patients [2, 13]: 0
Stable Disease (SD), number of patients [2, 13]: 5
Partial Response (PR), number of patients ([2]; Colon, 7 enrolled): 0
Stable Disease (SD), number of patients ([2]; Colon, 7 enrolled): 2
Partial Response (PR), number of patients ([2]; Head and Neck, 5 enrolled): 0
Stable Disease (SD), number of patients ([2]; Head and Neck, 5 enrolled): 3
Partial Response (PR), number of patients ([2]; Lung, 11 enrolled): 0
Stable Disease (SD), number of patients ([2]; Lung, 11 enrolled): 6
Partial Response (PR), number of patients ([2]; Other tumor types, 5 enrolled): 0
Stable Disease (SD), number of patients ([2]; Other tumor types, 5 enrolled): 4
Partial Response (PR), number of patients ([2]; Ovarian, 4 enrolled): 0
Stable Disease (SD), number of patients ([2]; Ovarian, 4 enrolled): 2
Partial Response (PR), number of patients ([2]; Total, 67 enrolled): 4
Stable Disease (SD), number of patients ([2]; Total, 67 enrolled): 32
Number of patients with Partial Response ([2]; dose 650 mg/day): 1
Number of patients with Partial Response ([2]; dose 900 mg/day): 1
Number of patients with Partial Response ([2]; dose 1200 mg/day): 2
Response Duration, median ([2]; patients with Partial Response): 5+ months
ErbB1 % change (ErbB1; [3]): +35%
ErbB1 % change (ErbB1; [4]): −9%
ErbB1 (IHC OD value), Day 21 (ErbB1; [3]): 19
ErbB1 (IHC OD value), Day 21 (ErbB1; [4]): 32
Cyclin D % change (cyclin D1; [6]): −76%
Cyclin D % change (cyclin D1; [7]): −57%
cyclin D inhibition (Day 21 vs Day 0) (cyclin D1; [8]): 90%
Cyclin D (IHC OD value), Day 21 (cyclin D1; [6]): 10
cyclin D1 inhibition (Day 21 vs Day 0) (cyclin D1; [11]): 49%
cyclin D1 inhibition (Day 21 vs Day 0) (cyclin D1; [5]): 76%
cyclin D1 inhibition (Day 21 vs Day 0) (cyclin D1; [9]): 90%
Cyclin D (IHC OD value), Day 21 (cyclin D1; [7]): 12
cyclin D1 inhibition (Day 21 vs Day 0) (cyclin D1; [10]): 57%
